Assay results as given in patent US10519152B2, “Compounds and their use in treating cancer” (AstraZeneca AB, priority 2017, dated 2019).
pIC50: −log10 of the molar value.

Target: T1, recombinant human Estrogen Receptor alpha ligand binding domain, residues 307-554 (ER alpha-LBD (GST)) (Homo sapiens, UniProt P03372)
T1 construct: made in house
T1 sequence (P03372 307-554): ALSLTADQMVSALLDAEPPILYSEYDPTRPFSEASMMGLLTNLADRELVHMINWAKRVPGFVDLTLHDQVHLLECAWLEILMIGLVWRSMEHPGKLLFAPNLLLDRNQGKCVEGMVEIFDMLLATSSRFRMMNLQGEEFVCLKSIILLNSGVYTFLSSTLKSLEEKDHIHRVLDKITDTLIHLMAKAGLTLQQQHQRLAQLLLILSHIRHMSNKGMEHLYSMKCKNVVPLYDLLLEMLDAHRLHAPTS
Assay: ERα binding assay (LanthaScreen TR-FRET competition)
Conditions: TR-FRET competition with Fluormone ES2 tracer, 4 hours at room temperature; single experiment or average of two or more

| Compound | pIC50 |
| --- | --- |
| Cc1ncsc1-c1ccc(CNC(=O)[C@@H]2C[C@@H](O)CN2C(=O)[C@@H](NC(=O)CCOCCCCCCCOc2cc(F)c([C@@H]3c4[nH]c5ccccc5c4C[C@@H](C)N3CC(C)(C)F)c(F)c2)C(C)(C)C)cc1 [Example 115, (2S,4R)-1-((S)-2-(3-((7-(3,5-difluoro-4-((1R,3R)-2-(2-fluoro-2-methylpropyl)-3-methyl-2,3,4,9-tetrahydro-1H-pyrido[3,4-b]indol-1-yl)phenoxy)heptyl)oxy)propanamido)-3,3-dimethylbutanoyl)-4-hydroxy-N-(4-(4-methylthiazol-5-yl)benzyl)pyrrolidine-2-carboxamide] | 9.15 |
| Cc1ncsc1-c1ccc(CNC(=O)[C@@H]2C[C@@H](O)CN2C(=O)[C@@H](NC(=O)COCCCCCOCCOc2cc(F)c([C@@H]3c4[nH]c5ccccc5c4C[C@@H](C)N3CC(C)(C)F)c(F)c2)C(C)(C)C)cc1 [Example 9, (2S,4R)-1-((S)-2-(2-((5-(2-(3,5-Difluoro-4-((1R,3R)-2-(2-fluoro-2-methylpropyl)-3-methyl-2,3,4,9-tetrahydro-1H-pyrido[3,4-b]indol-1-yl)phenoxy)ethoxy)pentyl)oxy)acetamido)-3,3-dimethylbutanoyl)-4-hydroxy-N-(4-(4-methylthiazol-5-yl)benzyl)pyrrolidine-2-carboxamide] | 9.10 |
| Cc1ncsc1-c1ccc(CNC(=O)[C@@H]2C[C@@H](O)CN2C(=O)[C@@H](NC(=O)COCCc2ccc(COc3cc(F)c([C@@H]4c5[nH]c6ccccc6c5C[C@@H](C)N4CC(C)(C)F)c(F)c3)cc2)C(C)(C)C)cc1 [Example 53, (2S,4R)-1-((S)-2-(2-(4-((3,5-difluoro-4-((1R,3R)-2-(2-fluoro-2-methylpropyl)-3-methyl-2,3,4,9-tetrahydro-1H-pyrido[3,4-b]indol-1-yl)phenoxy)methyl)phenethoxy)acetamido)-3,3-dimethylbutanoyl)-4-hydroxy-N-(4-(4-methylthiazol-5-yl)benzyl)pyrrolidine-2-carboxamide] | 9.00 |
| Cc1ncsc1-c1ccc([C@@H](CN)NC(=O)[C@@H]2C[C@@H](O)CN2C(=O)[C@@H](NC(=O)COCCOCCOCCOc2cc(F)c([C@@H]3c4[nH]c5ccccc5c4C[C@@H](C)N3CC(C)(C)F)c(F)c2)C(C)(C)C)cc1 [Example 106, (2S,4R)—N-[(1S)-2-amino-1-[4-(4-methylthiazol-5-yl)phenyl]ethyl]-1-[(2S)-2-[[2-[2-[2-[2-[3,5-difluoro-4-[(1R,3R)-2-(2-fluoro-2-methyl-propyl)-3-methyl-1,3,4,9-tetrahydropyrido[3,4-b]indol-1-yl]phenoxy]ethoxy]ethoxy]ethoxy]acetyl]amino]-3,3-dimethyl-butanoyl]-4-hydroxy-pyrrolidine-2-carboxamide] | 9.10 |
| Cc1ncsc1-c1ccc(CNC(=O)[C@@H]2C[C@@H](O)CN2C(=O)[C@@H](NC(=O)COCCOCCCCCOc2cnc([C@@H]3c4[nH]c5ccccc5c4C[C@@H](C)N3CC(F)(F)F)c(F)c2)C(C)(C)C)cc1 [Example 165, (2S,4R)-1-((S)-2-(2-(2-((5-((5-Fluoro-6-((1S,3R)-3-methyl-2-(2,2,2-trifluoroethyl)-2,3,4,9-tetrahydro-1H-pyrido[3,4-b]indol-1-yl)pyridin-3-yl)oxy)pentyl)oxy)ethoxy)acetamido)-3,3-dimethylbutanoyl)-4-hydroxy-N-(4-(4-methylthiazol-5-yl)benzyl)pyrrolidine-2-carboxamide] | 7.94 |
| Cc1ncsc1-c1ccc(CNC(=O)[C@@H]2C[C@@H](O)CN2C(=O)[C@@H](NC(=O)COCCOCCCCCOc2cc(F)c([C@@H]3c4[nH]c5ccccc5c4C[C@@H](C)N3CC(F)F)c(F)c2)C(C)(C)C)cc1 [Example 167, (2S,4R)-1-((S)-2-(2-(2-((5-(4-((1R,3R)-2-(2,2-Difluoroethyl)-3-methyl-2,3,4,9-tetrahydro-1H-pyrido[3,4-b]indol-1-yl)-3,5-difluorophenoxy)pentyl)oxy)ethoxy)acetamido)-3,3-dimethylbutanoyl)-4-hydroxy-N-(4-(4-methylthiazol-5-yl)benzyl)pyrrolidine-2-carboxamide] | 9.05 |
| Cc1ncsc1-c1ccc(CNC(=O)[C@@H]2C[C@@H](O)CN2C(=O)[C@@H](NC(=O)COc2cccc(COc3cc(F)c([C@@H]4c5[nH]c6ccccc6c5C[C@@H](C)N4CC(C)(C)F)c(F)c3)c2)C(C)(C)C)cc1 [Example 20, (2S,4R)-1-((S)-2-(2-(3-((3,5-difluoro-4-((1R,3R)-2-(2-fluoro-2-methylpropyl)-3-methyl-2,3,4,9-tetrahydro-1H-pyrido[3,4-b]indol-1-yl)phenoxy)methyl)phenoxy)acetamido)-3,3-dimethylbutanoyl)-4-hydroxy-N-(4-(4-methylthiazol-5-yl)benzyl)pyrrolidine-2-carboxamide] | 9.00 |
| Cc1ncsc1-c1ccc(CNC(=O)[C@@H]2C[C@@H](O)CN2C(=O)[C@@H](NC(=O)C(F)(F)OCCCCCCOc2cc(F)c([C@@H]3c4[nH]c5ccccc5c4C[C@@H](C)N3CC(C)(C)F)c(F)c2)C(C)(C)C)cc1 [Example 116, (2S,4R)-1-((S)-2-(2-((6-(3,5-Difluoro-4-((1R,3R)-2-(2-fluoro-2-methylpropyl)-3-methyl-2,3,4,9-tetrahydro-1H-pyrido[3,4-b]indol-1-yl)phenoxy)hexyl)oxy)-2,2-difluoroacetamido)-3,3-dimethylbutanoyl)-4-hydroxy-N-(4-(4-methylthiazol-5-yl)benzyl)pyrrolidine-2-carboxamide] | 9.00 |
| Cc1ncsc1-c1ccc(CNC(=O)[C@@H]2C[C@@H](O)CN2C(=O)[C@@H](NC(=O)COCCCCCOc2ccc([C@@H]3c4[nH]c5ccccc5c4C[C@@H](C)N3CC(F)F)nc2)C(C)(C)C)cc1 [Example 17, (2S,4R)-1-((S)-2-(2-((5-((6-((1S,3R)-2-(2,2-Difluoroethyl)-3-methyl-2,3,4,9-tetrahydro-1H-pyrido[3,4-b]indol-1-yl)pyridin-3-yl)oxy)pentyl)oxy)acetamido)-3,3-dimethylbutanoyl)-4-hydroxy-N-(4-(4-methylthiazol-5-yl)benzyl)pyrrolidine-2-carboxamide] | 8.26 |
| Cc1ncsc1-c1ccc([C@H](C)NC(=O)[C@@H]2C[C@@H](O)CN2C(=O)[C@@H](NC(=O)COCCCOCCCCCOc2cc(F)c([C@@H]3c4[nH]c5ccccc5c4C[C@@H](C)N3CC(C)(C)F)c(F)c2)C(C)(C)C)cc1 [Example 137, (2S,4R)-1-((S)-2-(2-(3-((5-(3,5-Difluoro-4-((R,3R)-2-(2-fluoro-2-methylpropyl)-3-methyl-2,3,4,9-tetrahydro-1H-pyrido[3,4-b]indol-1-yl)phenoxy)pentyl)oxy)propoxy)acetamido)-3,3-dimethylbutanoyl)-4-hydroxy-N—((S)-1-(4-(4-methylthiazol-5-yl)phenyl)ethyl)pyrrolidine-2-carboxamide] | 9.10 |
| CC(=O)O[C@@H]1C[C@@H](C(=O)NCc2ccc(-c3scnc3C)cc2)N(C(=O)[C@@H](NC(=O)COCCOCCOCCOc2cc(F)c([C@@H]3c4[nH]c5ccccc5c4C[C@@H](C)N3CC(C)(C)F)c(F)c2)C(C)(C)C)C1 [Example 34, (3R,5S)-1-((S)-2-(tert-Butyl)-14-(3,5-difluoro-4-((1R,3R)-2-(2-fluoro-2-methylpropyl)-3-methyl-2,3,4,9-tetrahydro-1H-pyrido[3,4-b]indol-1-yl)phenoxy)-4-oxo-6,9,12-trioxa-3-azatetradecanoyl)-5-((4-(4-methylthiazol-5-yl)benzyl)carbamoyl)pyrrolidin-3-yl Acetate] | 9.05 |
